Source: US8420100B2, “Tumor suppressor activating polypeptides and uses thereof” (Department of Biotechnology, priority 2006, dated 2013)
Entries after “also recorded” stand apart in the source; their conditions may differ.

What was measured:
[1] = test system: HIF-1α; assay: Immunohistochemical staining of tumor sections for HIF-1α; assay type: in vivo, mouse; settings: tumors excised from treated mice
Text: (§1) Histopathological changes in the subcutaneous tumors: To analyze the tumor vasculature of TAT PTD, SM treated and P44 treated mice, the tumor sections were stained with HE. […] In SM treated tumors, due to compressed vessels, the shape of RBCs were also distorted (FIG. 7A, lower right panel, arrow marked). […] The presence of hypoxic cells is a hallmark of cancer (Brown, J. M., and Wilson, W. R. (2004) Nat. Rev. Cancer 4, 437-447; Minchinton, A. I., and Tannock, I. F. (2006) Nat. Rev. Cancer 6, 583-592). Cellular responses to hypoxia are triggered by the hypoxia inducible factor-1 alpha (HIF-1α) that is known to restore tissue homeostasis in hypoxic conditions (Semenza, G. L. (2000) Genes Dev. 14, 1983-1991). To determine the status of HIF-1α expression, immunohistochemical analysis was performed on tumor sections obtained from SM and P44 treated mice by using antibody against HIF-1 α. […] All these observations implicate the significance of P44 peptide in restoring tissue architecture in tumor cells and thus potentiates its role as a tumor regressor.
(§2) FIG. 7. Histopathological changes in B16F1-induced tumors. A, Hematoxylin and eosin staining of tumor sections excised from mice treated with either P44 (upper panel) or SM (lower panel) peptide. […] The images have been recorded at 20× and 40×. B, Immunohistochemistry of paraffin embedded tumor sections from P44 treated as well as, SM treated mice. After antigen unmasking, sections were stained with HIF-1α antibody (middle panel) and detected using Cy-3 conjugated mouse immunoglobulin. Sections were counterstained with DAP1 for nuclear localization (left panel). Right panel corresponds to the merged image.
Immunohistochemical staining of tumor sections: Tumor sections in paraffin-embedded blocks were transferred to poly-L-lysine coated glass slides and air-dried overnight at 37° C. They were dewaxed in xylene (three changes) and […] in graded series of decreasing ethanol concentrations. […] Thereafter, detected using cy-3 fluorescence labeled secondary antibody. […]

[2] = test system: B16F1 mouse melanoma cells; assay: B16F1 melanoma tumor regression in nude mice; assay type: in vivo; settings: for anti-tumorigenic activity (tumor regression): xenograft tumor nude mice model
Protocol: P44 peptide: A potent tumor regressor: To test whether the differences in SMAR1 derived peptide-induced activation of p53 translated to differences in drug sensitivity in vivo, B16F1 mouse melanoma cells were subcutaneously grafted into athymic nude mice, and tumor growth together with therapeutic sensitivity was monitored. Once the tumor nodule was established into the mouse, P44 peptide was injected in the tumor localized areas at a physiological dose of 200 μg/mouse thrice a week. The treatment was continued for 4 weeks. In a parallel experiment, either TAT PTD or TAT-SMAR1 RS mutant peptide, SM (FIGS. 6A and B, respectively) was injected in tumor bearing mice to be used as control.
FIG. 6D-F corresponds to the magnified tumor images of FIG. 6A-C, respectively. […] Thus, P44 peptide mimics the function of full-length SMAR1 in drastically reducing the tumor growth.
FIG. 6. Tumor regression by TAT-SMAR1 WT peptide. A, Nude mice were allowed to develop tumors by subcutaneously injecting B 16F1 mouse melanoma cells. Mice with size-matched tumors were then randomized into three treatment groups (five animals per group); TAT PTD alone (panel A), TAT-SMART RS mutant (SM) (panel B) and TAT-SMAR1 WT (P44) (panel C). Panels D, E and F correspond to the magnified images of panels A, B and C, respectively. Mice were treated with either of the peptides at a dose of 200 μg/mice/thrice a week for consecutive 4 weeks. The tumors were then weighed and plotted for each mouse in all the treatment groups (panel G).
Animal model for tumorgenesis: B16F1 mouse melanoma cells in the exponential growth phase were trypsinized (Invitrogen) and washed twice with PBS. Cell number and viability was assessed and cell cultures with viability >90% were used. Tumors were then established in nude mice by subcutaneous injection of 2×10^6 B16F1 cells. Five mice were used in each set of experiments. The mice were maintained under pathogen-free conditions. When the subcutaneous tumor was clearly visible, the TAT-SMAR1 WT (P44) peptide treatment was started. The P44 peptide was subcutaneously injected proximal to the tumor sites at a dose of 200 μg/mouse thrice a week. The treatment was administered for 4 weeks. For control treatment, TAT PTD alone and TAT SMAR1 RS mutant peptide (SM) were injected in the same manner as the P44 peptide.

[3] = test system: tumor vasculature of B16F1-induced tumors; assay: Hematoxylin and eosin histopathology of B16F1-induced tumors; assay type: in vivo, mouse; settings: tumors excised from treated mice
Text: as §1, §2

[4] = test system: cell cycle regulatory genes; assay: Microarray gene expression upon P44 treatment; assay type: cell-based

Sequence | HIF-1α expression in tumor sections [1] | tumor weight after excision ([2]; nude mice, 200 μg/mouse thrice a week, 4 weeks) | anti-tumorigenic activity (tumor regression) [2] | tumor vascular architecture (HE staining) [3] | expression of genes involved in regulating mitosis, MAPK signaling and cell cycle checkpoints [4] | expression of proteins involved in ubiquitin-proteasome signaling [4] | regression in tumor compared to TAT-injected or SM injected mice ([2]; nude mice, 200 μg/mouse thrice a week, 4 weeks, injected at tumor site) | inter-vessel distance compared to SM-treated tumors [3]
YGRKKRRQRRRTAWRRKQRGQSLAVKSFSRRTPAAAAYSASETM [SM, P44 mutant where serine residues from 347-350 were replaced by alanines] | increased HIF-1 α expression | 1.2 to 2.5 g | significantly reduced | leaky vascular architecture; also recorded: poorly organized vascular architecture and compressed blood vessels |  |  |  | 
YGRKKRRQRRRTAWRRKQRGQSLAVKSFSRRTPSSSSYSASETM [P44, 33 mer SMAR1 peptide (residues 324-357) conjugated with 11-mer TAT-PTD] | no detectable level of HIF-1α |  | strongly regressed tumors | intact vasculature | significant decreased expression | reduced expression | 5-7 fold | significantly less
